From patent US20130203718A1 (priority 2010, published 2013) come the findings set out here.

SMILES strings stand for the structures.

As usually defined, the IC50 is the concentration needed to halve the response being measured.

For one experiment, the target named is T1, hPRB (Homo sapiens, UniProt P06401).
T1 sequence (P06401 1-933): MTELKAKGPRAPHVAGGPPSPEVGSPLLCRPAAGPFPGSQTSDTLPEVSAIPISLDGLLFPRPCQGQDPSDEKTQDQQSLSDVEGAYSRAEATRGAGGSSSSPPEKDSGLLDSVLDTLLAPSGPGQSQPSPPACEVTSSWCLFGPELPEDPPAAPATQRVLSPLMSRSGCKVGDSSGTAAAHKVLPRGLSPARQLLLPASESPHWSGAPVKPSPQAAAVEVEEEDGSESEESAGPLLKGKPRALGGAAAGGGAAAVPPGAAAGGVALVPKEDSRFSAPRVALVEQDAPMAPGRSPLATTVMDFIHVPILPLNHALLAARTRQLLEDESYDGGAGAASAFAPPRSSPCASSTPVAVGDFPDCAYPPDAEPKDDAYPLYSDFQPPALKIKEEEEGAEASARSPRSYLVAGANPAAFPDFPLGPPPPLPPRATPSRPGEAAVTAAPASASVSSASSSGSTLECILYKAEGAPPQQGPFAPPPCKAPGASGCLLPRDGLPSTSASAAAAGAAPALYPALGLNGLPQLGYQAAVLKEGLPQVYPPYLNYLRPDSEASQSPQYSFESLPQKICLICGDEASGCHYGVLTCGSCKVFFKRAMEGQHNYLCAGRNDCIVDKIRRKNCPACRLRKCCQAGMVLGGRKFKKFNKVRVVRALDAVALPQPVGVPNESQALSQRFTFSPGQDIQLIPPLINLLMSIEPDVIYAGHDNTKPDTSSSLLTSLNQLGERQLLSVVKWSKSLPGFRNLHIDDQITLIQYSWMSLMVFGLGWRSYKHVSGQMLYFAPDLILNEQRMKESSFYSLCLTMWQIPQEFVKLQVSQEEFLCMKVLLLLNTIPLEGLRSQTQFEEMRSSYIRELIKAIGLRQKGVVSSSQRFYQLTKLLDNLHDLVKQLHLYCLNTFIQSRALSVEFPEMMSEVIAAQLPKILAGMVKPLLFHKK
The experiment can be described thus: PR transactivation assay (GRE2-Luc) in MDA-MB-231 iPRAB cells conditionally expressing hPRB. In kind it is cell-based. Details: expressed in transfected cells.
Conditions: not given
On the procedure: Establishment of the MDA-MB-231 iPRAB cells.
The PR negative breast cancer cells MDA-MB-231 were routinely maintained in RPMI 1640 medium with L-glutamine enriched with 5% fetal calf serum (FCS) and supplemented with antibiotics (penicillin 100 UI/ml, streptomycin 100 μg/ml). MDA MB-231 iPRAB cells allowing the bi-inducible expression of PRA and PRB isoforms were generated in two steps. First, pZX-TR vector expressing inducer proteins required for Tet-on (Tet-Repressor) and Ecdysone receptor-based system (EcR and RXR hybrids) was engineered using pcDNA6-TR (T-REx system, Invitrogen) and pZRD (Lessard, J. Prostate 2007 67, 808) derived from Rheoswitch system (NE Biolabs). Transfection of MDA-MB-231 cells by pZX-TR (harboring zeocin resistant gene) was performed using Lipofectamine 2000 (Invitrogen). Three hundred clones resistant to Zeocin (1 μg/ml) were isolated, amplified and screened for the proper functioning of both RheoSwitch and Tet-on inducible systems by transient transfection with pGal-4-luciferase or pTO-luciferase reporter genes generated as described. Luciferase activity was determined in the absence or presence of respective inducer ligand RSL1 (diacylhydrazine, a non-steroidal agonist of ecdysone, NE Biolabs) (500 nM) or Doxycycline (Dox, a tetracyclin analog, Sigma-Aldrich) (1 μg/ml) after 24 h. The clone that produced minimal background in the absence of both RSL1 and Dox and high inducible expression level on reporter gene assays by both systems was finally selected, verified and amplified (clone 250). This cell line was then further stably transfected by PR isoforms expressing vectors specifically engineered: pGaluas-PRA (harboring neomycin resistant gene) expressing PRA under the control of Gal4 Upstream Activating Sequences upstream of a truncated CMV promoter, and pTO-PRB (harboring blasticidin resistant gene) expressing PRB under the control of TetO2 responsive elements downstream of the full CMV promoter. Clones resistant to zeocin (1 μg/ml), neomycin (500 μg/ml) and blasticidin (2 μg/ml) were then isolated, amplified and screened by Western blot for PR isoforms expression in the absence or presence of both RSL1 (500 nM) and Dox (1 μg/ml) after 24 h. […] It was used to evaluate APRn properties and was defined as MDA-MB-231 iPRAB cells conditionally expressing PRB in the presence of doxycyclin (1 μg/ml).
PR Transactivation Assays in MDA-MB-231 iPRAB Cells.
The cells were cultured in 96-well plates in RPMI 1640 medium with L-glutamine without phenol red, enriched with 5% DCC serum containing inducer ligand RSL1 (500 nM) or Dox (1 μg/ml) for PRA or PRB expression during 24 h. Cells were then transfected with GRE2-Luc (100 ng) and β-galactosidase (20 ng) plasmids during 6 h, using Lipofectamine 2000 (Invitrogen). […] Whole cell extracts were collected using lysis buffer (Promega). Luciferase and β-galactosidase activity or total protein contents (BCA assay) were determined using a luminometer (Victor 378, Perkin Elmer). Luciferase activity was normalized by β-galactosidase activity or total protein contents.
All the synthesized APRn were classified in 4 series depending on the nature of their C3 substituent (R1/R′1 groups). The first one (series 1) includes APRn with no C3 substituent (R1═R′1═H) whereas series 2, 3 and 4 are related to APRn bearing a methoxyl (R1═OMe), a hydroxyl (R1═OH) and a fluorine atom (R1═F), respectively. The agonist/antagonist activities of APRn were determined either in human HEK293T cells transiently expressing hPRB or in human MDA-MB-231 iPRAB cells conditionally expressing hPRB, by using a luciferase reporter gene placed under the control of a glucocorticoid response element (GRE2-Luc). The APRn “agonist efficacy” was determined from the luciferase activity measured in the presence of APRn (1 μM). […] The “agonist efficacy” and “antagonist efficacy” are expressed as defined in the biological protocols section.
For `C[C@@H]1CCC2C3CC=C4C[C@@H](F)CC[C@]4(C)C3CC[C@]2(C)[C@H]1F` (stereo partly drawn) [APR-19, 3β,17α-Difluoro-17α-methyl-D-Homo-pregn-5-ene], the IC50 is approximately 500 nM.

As to `CC#C[C@]1(O)CCC2C3CC[C@H]4C[C@@H](F)CC[C@]4(C)C3CC[C@@]21C` (stereo partly drawn) [APR-43, 3β-Fluoro-17α-(1-propynyl)-5α-androstan-17β-ol], the concentration for half-maximal inhibition (IC50) was approximately 500 nM.

On to `C[C@]12CCC3C(CC=C4C[C@@H](F)CC[C@@H]43)C1CCC2=O` (stereo partly drawn) [APR-47, 3β-Fluoro-19-nor-androst-5-en-17-one], for which the half-maximal inhibitory concentration (IC50) was approximately 500 nM.

Turning to `CC#C[C@]1(O)CCC2C3CC[C@H]4CCCC[C@@H]4C3CC[C@@]21C` (stereo partly drawn) [APR-54, 17α-(1-Propynyl)-19-nor-5-androstan-17β-ol], the IC50 was approximately 500 nM.

`CC#C[C@]1(O)CCC2C3CC=C4C[C@@H](F)CC[C@@H]4C3CC[C@@]21C` (stereo partly drawn) [APR-51, 3β-Fluoro-17α-(1-propynyl)-19-nor-androst-5-en-17β-ol] registered an IC50 of approximately 500 nM.

Staying with this experiment, now noted: dose response curves, MDA-MB-231 iPRAB cells expressing hPRB, FIG. 9; read-out: IC50.
`CC(=O)[C@H]1CC[C@H]2[C@@H]3CC=C4C[C@@H](F)CC[C@]4(C)[C@H]3CC[C@]12C` [APR-16, 3β-Fluoropregn-5-en-20-one]: the IC50 is approximately 500 nM.
